Experimental data as given in patent US8129398B2 (priority 2008, dated 2012).

Target: T1, HIV-integrase (Human immunodeficiency virus type 1 group M subtype B, UniProt P12497)
T1 construct: Recombinant integrase (0.26 ng) was incubated with the beads
Assay: HIV-Integrase Inhibition Activity (SPA bead integration assay with P33 labeled target DNA)
Type: biochemical
Settings: recombinant integrase, class symbols; read-out: in vitro activity
Procedure, shortened: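 Strand integration read as bead-proximity CPM after P33 target DNA (0.1 fmol) and inhibitor were added to washed integrase–substrate DNA complexes on SPA beads. Enzyme bound 90 min at 37° C; EDTA (10 mM final) terminated reaction; IC50 graded A/B/C.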

`Cc1cc(CNC(=O)c2nc3n(c(=O)c2O)CC2CCC3(N(C)C(=O)C(=O)N(C)Cc3cn(C)nc3C)CC2)ccc1F` [Example 170, N-((1,3-Dimethyl-1H-pyrazol-4-yl)methyl)-N′-(2-((4-fluoro-3-methylbenzyl)carbamoyl)-3-hydroxy-4-oxo-6,7,8,9-tetrahydro-7,10-ethanopyrimido[1,2-a]azepin-10(4H)-yl)-N,N′-dimethylethanediamide] and `Cc1cc(CNC(=O)c2nc3n(c(=O)c2O)CC2CCC3(N(C)C(=O)C(=O)N3CC[C@@H](F)C3)CC2)ccc1F` [Example 164, N-(4-Fluoro-3-methylbenzyl)-10-((((3R)-3-fluoro-1-pyrrolidinyl)(oxo)acetyl)(methyl)amino)-3-hydroxy-4-oxo-4,6,7,8,9,10-hexahydro-7,10-ethanopyrimido[1,2-a]azepine-2-carboxamide] cannot be ordered by IC50: < 10 nM for the first, < 10 nM for the second.

`CCN(C)C(=O)C(=O)NC12CCC(CC1)Cn1c2nc(C(=O)NCc2ccc(F)cc2)c(O)c1=O` [Example 101, N-Ethyl-N′-(2-((4-fluorobenzyl)carbamoyl)-3-hydroxy-4-oxo-6,7,8,9-tetrahydro-7,10-ethanopyrimido[1,2-a]azepin-10(4H)-yl)-N-methylethanediamide] and `CC(C)N(C)C(=O)C(=O)NC12CCC(CC1)Cn1c2nc(C(=O)NCc2ccc(F)cc2)c(O)c1=O` [Example 105, N′-(2-((4-Fluorobenzyl)carbamoyl)-3-hydroxy-4-oxo-6,7,8,9-tetrahydro-7,10-ethanopyrimido[1,2-a]azepin-10(4H)-yl)-N-methyl-N-(1-methylethyl)ethanediamide] cannot be ordered by IC50: < 10 nM for the first, < 10 nM for the second.

`O=C(NCc1ccc(F)cc1)c1nc2n(c(=O)c1O)CC1CCC2(NC(=O)C2CCCN2S(=O)(=O)c2ncn[nH]2)CC1` (stereo not shown) [Example 409] and `CC(C)C(=O)N1CCCC1C(=O)NC12CCC(CC1)Cn1c2nc(C(=O)NCc2ccc(F)cc2)c(O)c1=O` (stereo not shown) [Example 399] cannot be ordered by IC50: < 10 nM for the first, < 10 nM for the second.

First: CCOC(=O)N1CCCC1C(=O)NC12CCC(CC1)Cn1c2nc(C(=O)NCc2ccc(F)cc2)c(O)c1=O (stereo not shown) [Example 397]
Second: CN(C)CC(=O)NC12CCC(CC1)Cn1c2nc(C(=O)NCc2ccc(F)cc2)c(O)c1=O [Example 29, 10-((N,N-Dimethylglycyl)amino)-N-(4-fluorobenzyl)-3-hydroxy-4-oxo-4,6,7,8,9,10-hexahydro-7,10-ethanopyrimido[1,2-a]azepine-2-carboxamide]
The IC50 of the first is lower: < 10 nM for the first, 10 to 100 nM for the second. The first is the more potent here.

First: CC1(C)[C@@H]2CC[C@@]1(C)[C@@H](NC(=O)OCc1ccccc1)c1nc(C(=O)NCc3ccc(F)cc3)c(O)c(=O)n1C2 [Example 181, Benzyl((7S,10R,11R)-2-((4-fluorobenzyl)carbamoyl)-3-hydroxy-10,12,12-trimethyl-4-oxo-6,7,8,9,10,11-hexahydro-4H-7,10-methanopyrimido[1,2-a]azocin-11-yl)carbamate]
Second: CN(C)C(=O)C(=O)NC12CCC(CC1)Cn1c2nc(C(=O)NCc2ccccc2)c(O)c1=O [Example 129, N′-(2-(Benzylcarbamoyl)-3-hydroxy-4-oxo-6,7,8,9-tetrahydro-7,10-ethanopyrimido[1,2-a]azepin-10(4H)-yl)-N,N-dimethylethanediamide]
The IC50 of the first is higher: 10 to 100 nM for the first, < 10 nM for the second. The second is the more potent here.

First: O=C(NC12CCC(CCn3c1nc(C(=O)NCc1ccc(F)cc1)c(O)c3=O)C2)C(=O)N1CC[C@@H](F)C1 (stereo partly drawn) [Example 208, 8,11-Methano-4H-pyrimido[1,2-a]azocine-2-carboxamide, N-[(4-fluorophenyl)methyl]-11-[[2-[(3R)-3-fluoro-1-pyrrolidinyl]-1,2-dioxoethyl]amino]-6,7,8,9,10,11-hexahydro-3-hydroxy-4-oxo-]
Second: CN(C)C(=O)C(=O)NC12CCC(CC1)Cn1c2nc(C(=O)NCc2ccc(O)cc2)c(O)c1=O [Example 390]
The IC50 of the first is lower: < 10 nM for the first, 10 to 100 nM for the second.

With `CN(C)C(=O)C(=O)NC12CCC(CC1)Cn1c2nc(C(=O)NCc2ccc(F)c(C(F)(F)F)c2)c(O)c1=O` [Example 119, N′-(2-((4-Fluoro-3-(trifluoromethyl)benzyl)carbamoyl)-3-hydroxy-4-oxo-6,7,8,9-tetrahydro-7,10-ethanopyrimido[1,2-a]azepin-10(4H)-yl)-N,N-dimethylethanediamide] the IC50 was < 10 nM.
